Data taken from patent EP0678516B1, “Preparation of 2-bromo-5-(2-bromo-2-nitrovinyl)-furan and its use as microcide” (CENTRO DE BIOACTIVOS QUIMICOS DE LA UNIVERSIDAD CENTRAL DE …, priority 1994, dated 1995).
≈ marks a conversion by molar mass, not a printed value.

Key:
Bacillus alvei = assay: In vitro MIC (serial dilution); assay type: cell-based; conditions: Paenibacillus alvei
Experimental: (§1) The antimicrobial sensitivity was first evaluated "in vitro" using the serial dilution method for bacteria and fungi. Other growth methods in agar cultures were included for other species. The liquid and solid mediums used were Mueller-Hinton, Tryptona Soya, Sabouraud Dextrosa, Sabouraud Maltose and other mediums in accordance with the cultural demands of the micro-organisms valued.
(§2) The temperature and incubation period was adjusted to conditions and characteristics of the micro-organisms used.
(§3) The Minimal Inhibitory Concentration (MIC) was calculated in terms of MIC50 and MIC90 in µg/ml.

Bacillus subtilis = assay: In vitro MIC (serial dilution); assay type: cell-based
Experimental: as §1, §2, §3

Candida albicans = assay: In vitro MIC (serial dilution); assay type: cell-based
Experimental: as §1, §2, §3

Candida guilliermondi = assay: In vitro MIC (serial dilution); assay type: cell-based
Experimental: as §1, §2, §3

Candida parasilosis = assay: In vitro MIC (serial dilution); assay type: cell-based
Experimental: as §1, §2, §3

Candida stellatoidea = assay: In vitro MIC (serial dilution); assay type: cell-based; conditions: Candida albicans
Experimental: as §1, §2, §3

Candida tropicalis = assay: In vitro MIC (serial dilution); assay type: cell-based
Experimental: as §1, §2, §3

Corynebacterium pyogenes = assay: In vitro MIC (serial dilution); assay type: cell-based; conditions: Rhodococcus (subgen. Prescottella) equi
Experimental: as §1, §2, §3

Epidermophyton floccasum = assay: In vitro MIC (serial dilution); assay type: cell-based; conditions: only one value given
Experimental: as §1, §2, §3

Fusarium sp. = assay: In vitro MIC (serial dilution); assay type: cell-based; conditions: read-out: Minimal Inhibitory Concentration (MIC)
Experimental: as §1, §2, §3

[1] = tested on: Klebsiella spp. (including K. pneumoniae); assay: In vitro MIC (serial dilution); assay type: cell-based
Experimental: as §1, §2, §3

Leptospira canicola = assay: In vitro MIC (serial dilution); assay type: cell-based; conditions: Leptospira interrogans
Experimental: as §1, §2, §3

Listeria monocytogenes = assay: In vitro MIC (serial dilution); assay type: cell-based
Experimental: as §1, §2, §3

Microsporum canis = assay: In vitro MIC (serial dilution); assay type: cell-based
Experimental: as §1, §2, §3

Microsporum gypseum = assay: In vitro MIC (serial dilution); assay type: cell-based; conditions: Nannizzia gypsea
Experimental: as §1, §2, §3

Moracella bovis = assay: In vitro MIC (serial dilution); assay type: cell-based
Experimental: as §1, §2, §3

Pasteurella haemolytica = assay: In vitro MIC (serial dilution); assay type: cell-based; conditions: Mannheimia haemolytica
Experimental: as §1, §2, §3

Proteus mirabilis = assay: In vitro MIC (serial dilution); assay type: cell-based
Experimental: as §1, §2, §3

Proteus morganii = assay: In vitro MIC (serial dilution); assay type: cell-based; conditions: Morganella morganii
Experimental: as §1, §2, §3

Proteus rettgeri = assay: In vitro MIC (serial dilution); assay type: cell-based; conditions: Providencia rettgeri
Experimental: as §1, §2, §3

Proteus vulgaris = assay: In vitro MIC (serial dilution); assay type: cell-based
Experimental: as §1, §2, §3

Pseudomonas aerguinosa = assay: In vitro MIC (serial dilution); assay type: cell-based
Experimental: as §1, §2, §3

Salmonella dublin = assay: In vitro MIC (serial dilution); assay type: cell-based; conditions: Salmonella enterica
Experimental: as §1, §2, §3

Salmonella oxford = assay: In vitro MIC (serial dilution); assay type: cell-based
Experimental: as §1, §2, §3

Salmonella typhimurium = assay: In vitro MIC (serial dilution); assay type: cell-based; conditions: Salmonella enterica
Experimental: as §1, §2, §3

Sarcina lutea = assay: In vitro MIC (serial dilution); assay type: cell-based; conditions: Micrococcus luteus
Experimental: as §1, §2, §3

Serratia marcescens = assay: In vitro MIC (serial dilution); assay type: cell-based
Experimental: as §1, §2, §3

Staphylococcus aureus = assay: In vitro MIC (serial dilution); assay type: cell-based
Experimental: as §1, §2, §3

[2] = tested on: Trichophyton mentagrophytes; assay: In vitro MIC (serial dilution); assay type: cell-based
Experimental: as §1, §2, §3

Trichophyton rubrum = assay: In vitro MIC (serial dilution); assay type: cell-based
Experimental: as §1, §2, §3

[3] = tested on: Vibrio cholerae ser. Inabu; assay: In vitro MIC (serial dilution); assay type: cell-based
Experimental: as §1, §2, §3

queratoconjunctivitis = assay: Effectiveness against bacterial eye diseases, all treated eyes; assay type: in vivo; conditions: 9435 animal eyes, overall
Description: The effectiveness of the active principle against bacterial eye diseases in: 9435 animal eyes affected with queratoconjunctivitis; 8093 of cattle and 1342 of other species (sheep, rabbits, dogs, horses, pigs, cats, guinea-pigs and birds).

Pseudomonas aeruginosa = assay: Intramuscular treatment of stud bulls affected with piocianosis; assay type: in vivo
Experimental: The active principle was administered in a dose of 5-10 mg/kg of body mass by intramuscular route in bulls affected with piocianosis Pseudomonas aeruginosa. […] In clinical tests no allergic reactions were detected in animals (Table No.5).

[4] = 5-10 mg/kg of body mass, intramuscular route
[5] = 25 ill bulls, 5 treatments per animal, 5-10 mg/kg intramuscular

O=[N+]([O-])C(Br)=Cc1ccc(Br)o1 [Product G-1, 2-bromo-5-(2-bromo-2-nitro-vinyl)-furan]
MIC50 (Bacillus alvei): 2.21 µg/mL (≈ 7.44 µM) | MIC90 (Bacillus alvei): 5.08 µg/mL (≈ 17.1 µM) | MIC50 (Bacillus subtilis): 2.27 µg/mL (≈ 7.65 µM) | MIC90 (Bacillus subtilis): 5.08 µg/mL (≈ 17.1 µM) | MIC50 (Candida albicans): 3.11 µg/mL (≈ 10.5 µM) | MIC90 (Candida albicans): 7.95 µg/mL (≈ 26.8 µM) | MIC50 (Candida guilliermondi): 1.92 µg/mL (≈ 6.47 µM) | MIC90 (Candida guilliermondi): 2.84 µg/mL (≈ 9.57 µM) | MIC50 (Candida parasilosis): 3.56 µg/mL (≈ 12 µM) | MIC90 (Candida parasilosis): 6.93 µg/mL (≈ 23.3 µM) | MIC50 (Candida stellatoidea): 1.92 µg/mL (≈ 6.47 µM) | MIC90 (Candida stellatoidea): 3.56 µg/mL (≈ 12 µM) | MIC50 (Candida tropicalis): 2.78 µg/mL (≈ 9.36 µM) | MIC90 (Candida tropicalis): 5.29 µg/mL (≈ 17.8 µM) | MIC50 (Corynebacterium pyogenes): 3.56 µg/mL (≈ 12 µM) | MIC90 (Corynebacterium pyogenes): 5.59 µg/mL (≈ 18.8 µM) | MIC50 (Epidermophyton floccasum): 12.5 µg/mL (≈ 42.1 µM) | MIC (Fusarium sp.): 50 µg/mL (≈ 168 µM) | MIC50 [1]: 11 µg/mL (≈ 37 µM) | MIC90 [1]: 21.3 µg/mL (≈ 71.9 µM) | MIC50 (Leptospira canicola): 9.36 µg/mL (≈ 31.5 µM) | MIC90 (Leptospira canicola): 15.4 µg/mL (≈ 51.8 µM) | MIC50 (Listeria monocytogenes): 3.13 µg/mL (≈ 10.5 µM) | MIC90 (Listeria monocytogenes): 5.44 µg/mL (≈ 18.3 µM) | MIC50 (Microsporum canis): 7.91 µg/mL (≈ 26.6 µM) | MIC90 (Microsporum canis): 40.6 µg/mL (≈ 137 µM) | MIC50 (Microsporum gypseum): 12.5 µg/mL (≈ 42.1 µM) | MIC90 (Microsporum gypseum): 20.8 µg/mL (≈ 70 µM) | MIC50 (Moracella bovis): 2.63 µg/mL (≈ 8.86 µM) | MIC90 (Moracella bovis): 5.08 µg/mL (≈ 17.1 µM) | MIC50 (Pasteurella haemolytica): 3.72 µg/mL (≈ 12.5 µM) | MIC90 (Pasteurella haemolytica): 5.63 µg/mL (≈ 19 µM) | MIC50 (Proteus mirabilis): 9.36 µg/mL (≈ 31.5 µM) | MIC90 (Proteus mirabilis): 24.1 µg/mL (≈ 81.3 µM) | MIC50 (Proteus morganii): 3.13 µg/mL (≈ 10.5 µM) | MIC90 (Proteus morganii): 10.2 µg/mL (≈ 34.2 µM) | MIC50 (Proteus rettgeri): 2.78 µg/mL (≈ 9.36 µM) | MIC90 (Proteus rettgeri): 9.92 µg/mL (≈ 33.4 µM) | MIC50 (Proteus vulgaris): 5.95 µg/mL (≈ 20 µM) | MIC90 (Proteus vulgaris): 19.8 µg/mL (≈ 66.5 µM) | MIC50 (Pseudomonas aerguinosa): 7.84 µg/mL (≈ 26.4 µM) | MIC90 (Pseudomonas aerguinosa): 15 µg/mL (≈ 50.4 µM) | MIC50 (Salmonella dublin): 4.38 µg/mL (≈ 14.8 µM) | MIC90 (Salmonella dublin): 5.73 µg/mL (≈ 19.3 µM) | MIC50 (Salmonella oxford): 4.42 µg/mL (≈ 14.9 µM) | MIC90 (Salmonella oxford): 5.83 µg/mL (≈ 19.6 µM) | MIC90 (Salmonella typhimurium; TYPHIMURIUM, read-out: MIC90 values): 17.7 µg/mL (≈ 59.5 µM) | MIC50 (Salmonella typhimurium; Salmonella typhimurium): 7.43 µg/mL (≈ 25 µM) | MIC50 (Sarcina lutea): 1.56 µg/mL (≈ 5.25 µM) | MIC90 (Sarcina lutea): 4.43 µg/mL (≈ 14.9 µM) | MIC50 (Serratia marcescens): 5.03 µg/mL (≈ 16.9 µM) | MIC90 (Serratia marcescens): 10.9 µg/mL (≈ 36.9 µM) | MIC50 (Staphylococcus aureus): 5.91 µg/mL (≈ 19.9 µM) | MIC90 (Staphylococcus aureus): 12.9 µg/mL (≈ 43.6 µM) | MIC90 [2]: 40.6 µg/mL (≈ 137 µM) | MIC50 ([2]; read-out: MIC50 values): 17.7 µg/mL (≈ 59.5 µM) | MIC50 (Trichophyton rubrum): 13.8 µg/mL (≈ 46.5 µM) | MIC90 (Trichophyton rubrum): 24 µg/mL (≈ 80.9 µM) | MIC50 ([3]; read-out: MIC50 values): 5.87 µg/mL (≈ 19.8 µM) | MIC90 ([3]; read-out: MIC90 values): 17.7 µg/mL (≈ 59.5 µM) | clinical recuperation (queratoconjunctivitis): 89,6% | allergic reactions to the medicament (Pseudomonas aeruginosa; [4]): without any allergic reactions to the medicament being detected | seminal parameters established as quality control (Pseudomonas aeruginosa; [4]): no alterations being detected | Recuperated (animals) (Pseudomonas aeruginosa; [5]): 21 | percentage of effectiveness (Pseudomonas aeruginosa; [5]): 84% | bacteriological tests carried out in the semen (Pseudomonas aeruginosa; at 3,7,14,21 and 28 days): negative at germ | cytotoxicity and morphological characteristic of spermatozoid (Pseudomonas aeruginosa; frozen semen of treated bulls): absence of cytotoxicity and variations in morphological characteristic of spermatozoid
